Results reported in ChEMBL document CHEMBL1136024, “CCR3 antagonists: a potential new therapy for the treatment of asthma. Discovery and structure-activity relationships” (Bioorg Med Chem Lett, 2002).

Experiments:
[1] = biological target: T1, C-C chemokine receptor type 3 (Homo sapiens, UniProt P51677); experiment: In vitro inhibition if C-C chemokine receptor type 3 (CCR3) using 150p M [125I]-labeled human eotaxin
T1 sequence (P51677 whole entry): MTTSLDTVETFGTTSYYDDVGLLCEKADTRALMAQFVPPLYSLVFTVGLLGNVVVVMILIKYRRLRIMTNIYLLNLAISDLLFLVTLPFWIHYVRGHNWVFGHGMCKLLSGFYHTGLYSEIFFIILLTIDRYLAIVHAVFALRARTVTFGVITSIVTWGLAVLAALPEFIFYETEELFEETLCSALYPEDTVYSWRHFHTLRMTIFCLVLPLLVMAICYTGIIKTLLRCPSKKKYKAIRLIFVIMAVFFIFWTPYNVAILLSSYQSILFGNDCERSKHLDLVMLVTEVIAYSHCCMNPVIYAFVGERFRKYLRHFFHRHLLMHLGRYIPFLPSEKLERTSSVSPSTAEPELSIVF

[2] = biological target: T2, C-C chemokine receptor type 3 (Homo sapiens) (UniProt P51677); experiment: In vitro inhibitory activity against C-C chemokine receptor type 3 at 10 uM using 150p M [125I]-labeled human eotaxin
T2 sequence (whole entry): T1 sequence (P51677 whole entry)

SMILES	IC50 [1]	inhibition [2]
COc1cccc(NC(=O)N2CCC(CN3CCC(Cc4ccccc4)CC3)CC2)c1	1.6 µM	–
O=C(NCCCN1CCC(Cc2ccc(F)cc2)CC1)Nc1cccc(-c2ccco2)c1	0.1 µM	–
CC(=O)c1cccc(NC(=O)NCCCN2CC[C@H](Cc3ccccc3)C[C@@H]2[C@@H](O)CC(C)C)c1	0.02 µM	–
O=C(NCCCN1CCC(Cc2ccc(F)cc2)CC1)NCc1ccccc1	0.4 µM	–
COc1cccc(NC(=O)N2CCC(N3CCC(Cc4ccccc4)CC3)CC2)c1	2.3 µM	–
COc1cccc(NC(=O)N2CCO[C@@H](CN3CCC(Cc4ccc(F)cc4)CC3)C2)c1	0.26 µM	–
CC(=O)c1cccc(NC(=O)NCCCN2CC[C@H](Cc3ccccc3)C[C@@H]2[C@H](O)C(C)C)c1	0.1 µM	–
N#Cc1cccc(NC(=O)NCCCN2CCC(Cc3ccccc3)CC2)c1	0.2 µM	–
Fc1ccc(CCCN2CC[C@@H]3[C@H](C2)c2cccc4c2N3CC4)cc1	0.5 µM	100%
O=S(=O)(NCCCN1CC[C@@H]2[C@H](C1)c1cccc3c1N2CC3)c1ccc(F)cc1	10.1 µM	–
O=C(NCCCN1CCC(Cc2ccc(F)cc2)CC1)Nc1ccc(C(F)(F)F)cc1	0.06 µM	–
CC(=O)c1ccc(NC(=O)NCCCN2CCC(Cc3ccc(F)cc3)CC2)cc1	0.2 µM	–
O=C(NCCCN1CCC(Cc2ccc(F)cc2)CC1)Nc1cccc(-c2ncc[nH]2)c1	0.1 µM	–
Fc1ccc(CN2CC[C@@H]3[C@H](C2)c2cccc4c2N3CC4)cc1	–	15%
N#Cc1cccc(NC(=O)NCCCCCN2CCC(Cc3ccccc3)CC2)c1	1.2 µM	–
O=C(NCCCN1CC[C@@H]2[C@H](C1)c1cccc3c1N2CC3)Nc1ccc(I)cc1	1.5 µM	–
NCCCCN1CC[C@@H]2[C@H](C1)c1cccc3c1N2CC3	–	5%
N#Cc1cccc(NC(=O)NCCCN2CCC(Cc3ccc(Cl)cc3)CC2)c1	0.02 µM	–
CC(=O)c1cccc(NC(=O)NCCCN2CC[C@H](Cc3ccccc3)C[C@@H]2[C@@H](O)C(C)C)c1	0.05 µM	–
NCCN1CC[C@@H]2[C@H](C1)c1cccc3c1N2CC3	–	15%
COc1cccc(NC(=O)N2CCCC(CN3CCC(Cc4ccccc4)CC3)C2)c1 (racemic)	0.33 µM	–
N#Cc1cccc(NC(=O)NCCCN2CC[C@@H]3[C@H](C2)c2cccc4c2N3CC4)c1	0.7 µM	–
CC(=O)c1cccc(NC(=O)NCCCN2CC[C@H](Cc3ccccc3)C[C@@H]2[C@H](O)CC(C)C)c1	0.06 µM	–
CN(C)c1ccc(NC(=O)NCCCN2CC[C@@H]3[C@H](C2)c2cccc4c2N3CC4)cc1	4.8 µM	–

SMILES	IC50 [1]	inhibition [2]
CC(=O)c1cccc(NC(=O)NCCCN2CC[C@H](Cc3ccccc3)C[C@@H]2C(C)(O)O)c1	0.05 µM	–
O=C(NCCCN1CCC(Cc2ccc(F)cc2)CC1)Nc1cccc([N+](=O)[O-])c1	0.009 µM	–
CC(=O)c1cccc(NC(=O)NCCCN2CCC(Cc3ccc(F)cc3)CC2)c1	0.01 µM	–
COc1cccc(NC(=O)N2CCO[C@H](CN3CCC(Cc4ccc(F)cc4)CC3)C2)c1	0.03 µM	–
O=C(NCCCN1CCC(Cc2ccc(F)cc2)CC1)Nc1cccc(C(F)(F)F)c1	0.07 µM	–
O=C(NCCCN1CCC(Cc2ccc(F)cc2)CC1)Nc1ccccc1C(F)(F)F	0.2 µM	–
CCC[C@H]1C[C@@H](Cc2ccccc2)CCN1CCCNC(=O)Nc1cccc(C(C)=O)c1 (stereo in doubt)	0.2 µM	–
CC(=O)c1cccc(NC(=O)NCCCN2CC[C@H](Cc3ccccc3)C[C@@H]2[C@H](C)O)c1	0.02 µM	–
COc1cccc(NC(=O)N2CCCC(N3CCC(Cc4ccc(F)cc4)CC3)C2)c1 (racemic)	0.53 µM	–
O=C(CCCN1CC[C@@H]2[C@H](C1)c1cccc3c1N2CC3)c1ccc(F)cc1	1.1 µM	–
COc1ccc(C(=O)NCCCCN2CC[C@@H]3[C@H](C2)c2cccc4c2N3CC4)cc1	5.1 µM	–
O=C(NCCCN1CCC(Cc2ccc(F)cc2)CC1)Nc1ccc([N+](=O)[O-])cc1	0.007 µM	–
O=C(NCCCCN1CCC(Cc2ccccc2)CC1)c1ccc(F)cc1	1 µM	–
CCCC[C@H](O)[C@H]1C[C@@H](Cc2ccccc2)CCN1CCCNC(=O)Nc1cccc(-c2nnnn2C)c1	0.001 µM	–
CSc1ccc(NC(=O)NCCCN2CCC(Cc3ccc(F)cc3)CC2)cc1	0.04 µM	–
O=C(NCCCCN1CCC(Cc2ccccc2)CC1)c1ccccc1	0.8 µM	–
O=C(NCCCN1CCC(Cc2ccc(F)cc2)CC1)NC12CC3CC(CC(C3)C1)C2	0.09 µM	–
CSc1cccc(NC(=O)NCCCN2CCC(Cc3ccc(F)cc3)CC2)c1	0.02 µM	–
Fc1ccc(CCN2CC[C@@H]3[C@H](C2)c2cccc4c2N3CC4)cc1	–	50%
O=C(NCCCCN1CC[C@@H]2[C@H](C1)c1cccc3c1N2CC3)c1ccc(F)cc1	3.9 µM	–
O=C(NCCCN1CC[C@@H]2[C@H](C1)c1cccc3c1N2CC3)Nc1ccc(C(F)(F)F)cc1	3.7 µM	–
CC[C@@H](O)[C@H]1C[C@@H](Cc2ccccc2)CCN1CCCNC(=O)Nc1cccc(C(C)=O)c1	0.05 µM	–
N#Cc1cccc(NC(=O)NCCCN2CCC(Cc3ccc(F)cc3)CC2)c1	0.02 µM	–

Further lines, results first:

IC50 [1]	inhibition [2]	SMILES
0.17 µM	–	COc1cccc(NC(=O)N2CCCCC2CN2CCC(Cc3ccc(F)cc3)CC2)c1 (racemic)
1.3 µM	–	N#Cc1ccc(C(=O)NCCCCN2CCC(Cc3ccccc3)CC2)cc1
0.089 µM	–	O=C(NCCCN1CCC(Cc2ccc(F)cc2)CC1)Nc1ccccc1[N+](=O)[O-]
1.6 µM	–	CN(C)c1ccc(NC(=O)NCCCN2CCC(Cc3ccccc3)CC2)cc1
0.07 µM	–	CS(=O)(=O)c1ccc(NC(=O)NCCCN2CCC(Cc3ccc(F)cc3)CC2)cc1
0.007 µM	–	CCC[C@H](O)[C@H]1C[C@@H](Cc2ccccc2)CCN1CCCNC(=O)Nc1cccc(C(C)=O)c1
0.05 µM	–	C[S+]([O-])c1cccc(NC(=O)NCCCN2CCC(Cc3ccc(F)cc3)CC2)c1 (centres undefined)
0.24 µM	–	COc1cccc(NC(=O)N2CCC(CN3CCC(Cc4ccc(F)cc4)CC3)C2)c1 (racemic)
–	14%	NCCCN1CC[C@@H]2[C@H](C1)c1cccc3c1N2CC3
8.3 µM	–	O=C(NCCN1CC[C@@H]2[C@H](C1)c1cccc3c1N2CC3)c1ccc(F)cc1
0.02 µM	–	CS(=O)(=O)c1cccc(NC(=O)NCCCN2CCC(Cc3ccc(F)cc3)CC2)c1
1.2 µM	–	O=C(NCCCN1CCC(Cc2ccccc2)CC1)Nc1ccc(C(F)(F)F)cc1
0.2 µM	–	O=C(NCCCN1CCC(Cc2ccc(F)cc2)CC1)Nc1cccc(-c2cccs2)c1
0.006 µM	–	CC[C@H](O)[C@H]1C[C@@H](Cc2ccccc2)CCN1CCCNC(=O)Nc1cccc(C(C)=O)c1 (stereo in doubt; 85)
0.5 µM	–	N#Cc1cccc(NC(=O)NCCCCN2CCC(Cc3ccccc3)CC2)c1
0.001 µM	–	CCCC[C@H](O)[C@H]1C[C@@H](Cc2ccccc2)CCN1CCCNC(=O)Nc1cccc(C(C)=O)c1 (stereo in doubt; form 1)
0.02 µM	–	N#Cc1ccc(NC(=O)NCCCN2CCC(Cc3ccc(F)cc3)CC2)cc1
0.3 µM	–	COc1cccc(NC(=O)NCCCN2CCC(Cc3ccccc3)CC2)c1
0.2 µM	–	CC(=O)c1cccc(NC(=O)NCCCN2CC[C@H](Cc3ccccc3)C[C@@H]2Cc2ccccc2)c1
0.2 µM	–	N#Cc1cccc(NC(=O)NCCCN2CCC(Cc3ccccc3F)CC2)c1
0.5 µM	–	N#Cc1cccc(NC(=O)NCCN2CCC(Cc3ccccc3)CC2)c1

IC50 [1]	inhibition [2]	SMILES
6.4 µM	–	O=S(=O)(NCCCCN1CC[C@@H]2[C@H](C1)c1cccc3c1N2CC3)c1ccc(F)cc1
0.25 µM	–	COc1cccc(NC(=O)N2CCCC(CCN3CCC(Cc4ccc(F)cc4)CC3)C2)c1 (racemic)
0.005 µM	–	Cn1nnnc1-c1cccc(NC(=O)NCCCN2CCC(Cc3ccc(F)cc3)CC2)c1
0.03 µM	–	O=C(NCCCN1CCC(Cc2ccc(F)cc2)CC1)Nc1ccccc1
0.005 µM	–	CCCC[C@H](O)[C@H]1C[C@@H](Cc2ccc(F)cc2)CCN1CCCNC(=O)Nc1cccc(C(C)=O)c1
0.2 µM	–	C[S+]([O-])c1ccc(NC(=O)NCCCN2CCC(Cc3ccc(F)cc3)CC2)cc1 (centres undefined)
0.5 µM	–	Cc1ccc(CC2CCN(CCCNC(=O)Nc3cccc(C#N)c3)CC2)cc1
1.1 µM	–	O=C(NCCCN1CC[C@@H]2[C@H](C1)c1cccc3c1N2CC3)Nc1cccc(I)c1
8.1 µM	–	COc1cccc(C(=O)NCCCCN2CC[C@@H]3[C@H](C2)c2cccc4c2N3CC4)c1
0.03 µM	–	COc1cccc(NC(=O)NCCCN2CCC(Cc3ccc(F)cc3)CC2)c1
5.5 µM	–	O=C(NCCCN1CC[C@@H]2[C@H](C1)c1cccc3c1N2CC3)c1ccc(F)cc1
0.4 µM	–	O=C(NCCCN1CCC(Cc2ccccc2)CC1)Nc1ccccc1
0.1 µM	–	O=C(NCCCN1CCC(Cc2ccc(F)cc2)CC1)NC1CCCCC1
0.3 µM	–	O=C(NCCCN1CCC(Cc2ccc(F)cc2)CC1)NCCc1ccccc1
0.08 µM	–	CCCC[C@H](O)[C@H]1C[C@@H](Cc2ccccc2)CCN1CCCNC(=O)Nc1cccc(C(C)=O)c1 (stereo in doubt; form 2)
0.1 µM	–	CCC[C@H]1C[C@@H](Cc2ccccc2)CCN1CCCNC(=O)Nc1cccc(C(C)=O)c1 (stereo in doubt; 79)
6.8 µM	–	COc1ccccc1C(=O)NCCCCN1CC[C@@H]2[C@H](C1)c1cccc3c1N2CC3
0.2 µM	–	CC(=O)c1cccc(NC(=O)NCCCN2CC[C@H](Cc3ccccc3)C[C@@H]2C(C)(C)O)c1
0.008 µM	–	CC[C@H](O)[C@H]1C[C@@H](Cc2ccccc2)CCN1CCCNC(=O)Nc1cccc(C(C)=O)c1 (stereo in doubt)
1.2 µM	–	COc1cccc(C(=O)NCCCCN2CCC(Cc3ccccc3)CC2)c1
